Patent publication US11207310B2 (PRILENIA NEUROTHERAPEUTICS LTD., priority 2016, dated 2021)
Like-named read-outs stand apart in the source and are kept apart here.

Test system: patients with HD
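Further: UHDRS Total Functional Capacity items for finances and ADL, each scored 0 to 3, where 3 means normal function and 0 means unable (finances) or total care (ADL).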

SMILES: CCCN1CCC(c2cccc(S(C)(=O)=O)c2)CC1 [pridopidine, 4-[3-(methylsulfonyl)phenyl]-1-propyl-piperidine]
- Δ to placebo: UHDRS TFC Finance and ADL score, change from baseline (67.5 mg bid, CAG Repeats <44 and BL TMS 1st 3 Qs, week 26): 0.18
- Δ to placebo: UHDRS TFC Finance and ADL score, change from baseline (67.5 mg bid, TMS 1st 2Qs, week 26): 0.1
- Δ to placebo: UHDRS TFC Finance and ADL score, change from baseline (67.5 mg bid, TMS 1st 2Qs, week 52): 0.25
- Δ to placebo: UHDRS TFC Finance and ADL score, change from baseline (67.5 mg bid, TMS 1st 3Qs, week 26): 0.04
- Δ to placebo: UHDRS TFC Finance and ADL score, change from baseline (67.5 mg bid, TMS 1st 3Qs, week 52): −0.03
- Δ to placebo: UHDRS TFC Finance and ADL score, change from baseline (67.5 mg bid, TMS 1st Q, week 26): 0.5
- Δ to placebo: UHDRS TFC Finance and ADL score, change from baseline (67.5 mg bid, TMS 1st Q, week 52): 0.61
- Change from baseline in UHDRS TFC Finance ADL, Δ to placebo (67.5 mg bid, Week 26, ALL): 0.16
- UHDRS TFC Finance ADL, change from baseline, Δ to placebo (67.5 mg bid, Week 26, BL TFC<7, p value 0.8408): −0.06
- UHDRS TFC Finance ADL, change from baseline, Δ to placebo (67.5 mg bid, Week 26, BL TFC≥7, p value 0.0817): 0.32
- Change from baseline in UHDRS TFC Finance ADL, Δ to placebo (67.5 mg bid, Week 26, Stage 1 BL TFC 11-13): 0.65
- Change from baseline in UHDRS TFC Finance ADL, Δ to placebo (67.5 mg bid, Week 26, Stage 2 BL TFC 7-10 (FIG. 11c)): 0.26
- Change from baseline in UHDRS TFC Finance ADL, Δ to placebo (67.5 mg bid, Week 26, Stage 2 BL TFC 7-10 (FIG. 11f)): 0.54
- Change from baseline in UHDRS TFC Finance ADL, Δ to placebo (67.5 mg bid, Week 52, ALL): 0.1
- UHDRS TFC Finance ADL, change from baseline, Δ to placebo (67.5 mg bid, Week 52, BL TFC<7, p value 0.497): −0.25
- UHDRS TFC Finance ADL, change from baseline, Δ to placebo (67.5 mg bid, Week 52, BL TFC≥7, p value 0.1926): 0.27
- Change from baseline in UHDRS TFC Finance ADL, Δ to placebo (67.5 mg bid, Week 52, Stage 1 BL TFC 11-13): −0.18
- Δ to placebo: UHDRS TFC Finance and ADL score, change from baseline (90 mg bid, BL CAG Repeat >44, week 26): 0.67
- Δ to placebo: UHDRS TFC Finance and ADL score, change from baseline (90 mg bid, BL TFC≥9, week 26): 0.51
- Δ to placebo: UHDRS TFC Finance and ADL score, change from baseline (90 mg bid, BL TFC≥9 and BL TMS 1st 3 Qs, week 26): 0.45
- Δ to placebo: UHDRS TFC Finance and ADL score, change from baseline (90 mg bid, BL TFC≥9 and CAG Repeat >44, week 26): 0.83
- Δ to placebo: UHDRS TFC Finance and ADL score, change from baseline (90 mg bid, BL TFC≥9 and CAG Repeats <44 and BL TMS 1st 3 Qs, week 26): 0.81
- Δ to placebo: UHDRS TFC Finance and ADL score, change from baseline (90 mg bid, BL TFC≥9 or CAG Repeat >44, week 26): 0.52
- Δ to placebo: UHDRS TFC Finance and ADL score, change from baseline (90 mg bid, CAG Repeats <44 and BL TMS 1st 3 Qs, week 26): 0.6
- Δ to placebo: UHDRS TFC Finance and ADL score, change from baseline (90 mg bid, TMS 1st 2Qs, week 26): 0.26
- Δ to placebo: UHDRS TFC Finance and ADL score, change from baseline (90 mg bid, TMS 1st 2Qs, week 52): 0.47
- Δ to placebo: UHDRS TFC Finance and ADL score, change from baseline (90 mg bid, TMS 1st 3Qs, week 26): 0.35
- Δ to placebo: UHDRS TFC Finance and ADL score, change from baseline (90 mg bid, TMS 1st 3Qs, week 52): 0.21
- Δ to placebo: UHDRS TFC Finance and ADL score, change from baseline (90 mg bid, TMS 1st Q, week 26): 0.63
- Δ to placebo: UHDRS TFC Finance and ADL score, change from baseline (90 mg bid, TMS 1st Q, week 52): 0.57
- Change from baseline in UHDRS TFC Finance ADL, Δ to placebo (90 mg bid, Week 26, ALL): 0.31
- UHDRS TFC Finance ADL, change from baseline, Δ to placebo (90 mg bid, Week 26, BL TFC<7, p value 0.3747): 0.28
- UHDRS TFC Finance ADL, change from baseline, Δ to placebo (90 mg bid, Week 26, BL TFC≥7, p value 0.0093): 0.47
- Change from baseline in UHDRS TFC Finance ADL, Δ to placebo (90 mg bid, Week 26, Stage 1 BL TFC 11-13): 0.97
- Change from baseline in UHDRS TFC Finance ADL, Δ to placebo (90 mg bid, Week 26, Stage 2 BL TFC 7-10 (FIG. 11c)): 0.3
- Change from baseline in UHDRS TFC Finance ADL, Δ to placebo (90 mg bid, Week 26, Stage 2 BL TFC 7-10 (FIG. 11f)): 0.56
- Change from baseline in UHDRS TFC Finance ADL, Δ to placebo (90 mg bid, Week 52, ALL): 0.17
- UHDRS TFC Finance ADL, change from baseline, Δ to placebo (90 mg bid, Week 52, BL TFC<7, p value 0.4368): −0.29
- UHDRS TFC Finance ADL, change from baseline, Δ to placebo (90 mg bid, Week 52, BL TFC≥7, p value 0.0088): 0.53
- Change from baseline in UHDRS TFC Finance ADL, Δ to placebo (90 mg bid, Week 52, Stage 1 BL TFC 11-13): 0.4
- Δ to placebo: UHDRS TFC Finance and ADL score, change from baseline (112.5 mg bid, BL CAG Repeat >44, week 26): 0.47
- Δ to placebo: UHDRS TFC Finance and ADL score, change from baseline (112.5 mg bid, BL TFC≥9, week 26): 0.57
- Δ to placebo: UHDRS TFC Finance and ADL score, change from baseline (112.5 mg bid, BL TFC≥9 and BL TMS 1st 3 Qs, week 26): 0.54
- Δ to placebo: UHDRS TFC Finance and ADL score, change from baseline (112.5 mg bid, BL TFC≥9 and CAG Repeat >44, week 26): 1.02
- Δ to placebo: UHDRS TFC Finance and ADL score, change from baseline (112.5 mg bid, BL TFC≥9 and CAG Repeats <44 and BL TMS 1st 3 Qs, week 26): 1.08
- Δ to placebo: UHDRS TFC Finance and ADL score, change from baseline (112.5 mg bid, BL TFC≥9 or CAG Repeat >44, week 26): 0.4
- Δ to placebo: UHDRS TFC Finance and ADL score, change from baseline (112.5 mg bid, CAG Repeats <44 and BL TMS 1st 3 Qs, week 26): 0.57
- Δ to placebo: UHDRS TFC Finance and ADL score, change from baseline (112.5 mg bid, TMS 1st 2Qs, week 26): 0.19
- Δ to placebo: UHDRS TFC Finance and ADL score, change from baseline (112.5 mg bid, TMS 1st 2Qs, week 52): 0.44
- Δ to placebo: UHDRS TFC Finance and ADL score, change from baseline (112.5 mg bid, TMS 1st 3Qs, week 26): 0.41
- Δ to placebo: UHDRS TFC Finance and ADL score, change from baseline (112.5 mg bid, TMS 1st 3Qs, week 52): 0.09
- Δ to placebo: UHDRS TFC Finance and ADL score, change from baseline (112.5 mg bid, TMS 1st Q, week 26): 1.1
- Δ to placebo: UHDRS TFC Finance and ADL score, change from baseline (112.5 mg bid, TMS 1st Q, week 52): 0.74
- Change from baseline in UHDRS TFC Finance ADL, Δ to placebo (112.5 mg bid, Week 26, ALL): 0.38
- UHDRS TFC Finance ADL, change from baseline, Δ to placebo (112.5 mg bid, Week 26, BL TFC<7, p value 0.9361): 0.03
- UHDRS TFC Finance ADL, change from baseline, Δ to placebo (112.5 mg bid, Week 26, BL TFC≥7, p value 0.0007): 0.62
- Change from baseline in UHDRS TFC Finance ADL, Δ to placebo (112.5 mg bid, Week 26, Stage 1 BL TFC 11-13): 1.12
- Change from baseline in UHDRS TFC Finance ADL, Δ to placebo (112.5 mg bid, Week 26, Stage 2 BL TFC 7-10 (FIG. 11c)): 0.46
- Change from baseline in UHDRS TFC Finance ADL, Δ to placebo (112.5 mg bid, Week 26, Stage 2 BL TFC 7-10 (FIG. 11f)): 0.18
- Change from baseline in UHDRS TFC Finance ADL, Δ to placebo (112.5 mg bid, Week 52, ALL): 0.1
- UHDRS TFC Finance ADL, change from baseline, Δ to placebo (112.5 mg bid, Week 52, BL TFC<7, p value 0.5626): −0.22
- UHDRS TFC Finance ADL, change from baseline, Δ to placebo (112.5 mg bid, Week 52, BL TFC≥7, p value 0.0841): 0.36
- Change from baseline in UHDRS TFC Finance ADL, Δ to placebo (112.5 mg bid, Week 52, Stage 1 BL TFC 11-13): 0.64
